{"source": "patent US4083994A", "about": "“Choleretics” (Hisamitsu Pharmaceutical Co., Inc., priority 1975, dated 1978)", "key": {"[1]": {"system": "bile secretion", "experiment": "Bile secretion test in rats", "type": "in vivo, male Wistar rats", "settings": "oral; for Bile volume secreted after administration: rat, volume in 1 h before administration = 100%; for Volume of bile secreted relative to one hour before administration: rats", "description": "Male Wistar rats weighing 200-210 g were fasted overnight and laparotomized under urethane anesthesia(Subcutaneous injection at a dose of 1.5 g/kg). A polyethylene tube was inserted into the common bile duct. The bile was collected for one hour from 30 minutes after the operation. Subsequently, the animals were given orally the test drugs, each 50 mg of which was suspended in 1 ml of 5% gum arabic aqueous solution. The bile was collected for 5 hours after the drug administration. The volume of the bile secreted at hourly intervals after the drug administration was expressed in %, defining the volume secreted for one hour before the drug administration as 100%, as shown in Table 1.\nAbout 500 mg of p-menth-1-ene-8,9-diol were weighed accurately, and suspended in 10 ml of 5% gum arabic aqueous solution. […] Male rats of Wistar strain weighing 200 g were fasted overnight, anesthetized by subcutanous injection of 0.3 g of urethane and laparotomized. A polyethylene tube was inserted into the common bile duct. The bile was collected for one hour from 30 minutes after the operation. […]\nAbout 500 mg of 9-acetoxy-p-menth-1-en-8-ol was weighed accurately and suspended in 10ml of 5% gum arabic aqueous solution. […] Male rats of Wistar strain weighing about 210 g were fasted overnight and anesthetized by subcutaneous injection of 0.32 g of urethane and then laparotomized. A polyethylene tube was inserted into the common bile duct, and the bile secreted through the duct was collected for one hour from 30 minutes after the operation. Subsequently, the choleretic of the present invention was administered orally in a volume of 1.05 ml (250 mg/kg)."}, "[2]": {"system": "bile secretion", "experiment": "Bile secretion test in dogs", "type": "in vivo, male mongrel dogs", "settings": "dog, into duodenum, volume in 1 h before administration = 100%", "description": "Male mongrel dogs weighing approximately 8 kg were anesthetized with intravenous injection of […] of pentobarbital and further with subcutaneous injection of urethane at a dose of 1.0 g/kg and laparotomized. One canula was inserted into the common bile duct and directed to the liver for collection of the bile, and the other canula was inserted into the duodenum for the drug administration. The cholecystic duct was ligated and the gallbladder bile was aspirated with an injection syringe. The operation was finished by suture of the peritoneum. The bile was collected for one hour from 30 minutes after the operation. The animals were given the test drugs, each 50 mg of which was suspended in 1 ml of 5% gum arabic aqueous solution, through the canula for the drug administration. The bile was collected at hourly intervals for 6 hours after the drug administration. Defining the volume of the bile secreted for one hour before the drug administration as 100%, the volume secreted at hourly intervals after the drug administration was expressed in %, as shown in Table 2.\nThe mean volume secreted for one hour before the drug administration was 1798 μl.\nThis suspension was used as a choleretic of the present invention. A male mongrel dog weighing 8.8 kg was fasted overnight and anesthetized by subcutaneous injection of 1.0 mg/kg of urethane and laparotomized. One canula was inserted into the common bile duct and directed to the liver for collection of the bile, and the other canula was also inserted into the duodenum for the drug administration. Subsequently, the cholecystic duct was ligated and the gallbladder bile was aspirated with an injection syringe. The operation was finished after suturing the peritoneum. The bile was collected for one hour from 30 minutes after the operation, and subsequently, 44 ml of the test drug prepared above (250 mg/kg) was given through the canula for the drug administration. The volume of the bile secreted for the first, second and third one hour after the drug administration were 2.2, 2.1 and 1.9 times larger, respectively, than that secreted for one hour before the drug administration.\nAbout 2.5 g of 9-propionyloxy-p-menth-1-en-8-ol was weighed accurately and suspended in 50 ml of 5% gum arabic aqueous solution. This suspension was used as a choleretic of the present invention. A male mongrel dog weighing 7.6 kg was fasted overnight and anesthetized by subcutaneous injection of 1.0 mg/kg of urethane and then laparotomized. One canula was inserted into the common bile duct and directed to the liver for collection of the bile, and the other canula into the duodenum for the drug administration. Subsequently, the cholecystic duct was ligated and the gallbladder bile was aspirated with an injection syringe. The operation was finished by suturing the peritoneum. The bile was collected for one hour from 30 minutes after the operation, and 50 ml (330 mg/kg) of the test drug prepared above was administered through the canula for the drug administration. The volume of the bile secreted for the first, second and third one hour after the drug administration was 3.2, 5.0 and 4.7 times larger, respectively, than that secreted for one hour before the drug administration."}, "[3]": {"system": "sleeping time induced by hexobarbital", "experiment": "Effects on the sleeping time induced by hexobarbital (metabolism function of the liver)", "type": "in vivo, male rats of Wistar strain", "settings": "rats, 250 mg/kg oral once daily for a week; hexobarbital sodium 100 mg/kg i.p.; control 17.1 ± 0.9", "description": "About 500 mg of the test drugs were weighed accurately and suspended in 2 ml of 5% gum arabic aqueous solution. Ten male rats of Wistar strain were used per group and given orally the test drugs prepared above in a volume of 0.1 ml/100 g body weight (equivalent to 250 mg/kg), once daily (at 8.30-9.00 a.m.), for a week. The animals were fasted overnight after the last administration of the test drugs. Subsequently, 10% hexobarbital sodium aqueous solution was injected intraperitoneally in a volume of 0.1 ml (equivalent to 100 mg/kg) and the sleeping time was measured. The animals were regarded as sleeping when the loss of righting reflex persist for more than 30 seconds."}, "[4]": {"experiment": "Acute toxicity test in mice", "settings": "mouse, in vivo, oral, parentheses: 95% confidence limit", "description": "(§1) The test drugs were suspended in 5% gum arabic aqueous solution to make 50 mg/ml, and given orally male mice of ddY strain weighing 18-22 g and male rats of Wistar strain weighing 95-120 g. The LD50 values were calculated from the mortality of the animals that ensued during the 72 hours following the drug administration"}, "[5]": {"experiment": "Acute toxicity test in rats", "design": "species or system male rats of Wistar strain", "settings": "rat, in vivo, oral, parentheses: 95% confidence limit", "description": "as §1"}}, "data": [{"compound": "CC1=CCC(C(C)(O)CO)CC1", "note": "(stereo not shown) [p-Menth-1-ene-8,9-diol, p-menth-1-ene-8,9-diol]", "values": [{"measurement": "Bile volume secreted after administration", "setting": "[1]; 80 mg/kg, 0-1 hr", "value": 155, "unit": "%"}, {"measurement": "Bile volume secreted after administration", "setting": "[1]; 80 mg/kg, 1-2 hr", "value": 118, "unit": "%"}, {"measurement": "Bile volume secreted after administration", "setting": "[1]; 80 mg/kg, 2-3 hr", "value": 101, "unit": "%"}, {"measurement": "Bile volume secreted after administration", "setting": "[1]; 80 mg/kg, 3-4 hr", "value": 93, "unit": "%"}, {"measurement": "Bile volume secreted after administration", "setting": "[1]; 80 mg/kg, 4-5 hr", "value": 85, "unit": "%"}, {"measurement": "Bile volume secreted after administration", "setting": "[1]; 250 mg/kg, 0-1 hr", "value": 213, "unit": "%"}, {"measurement": "Bile volume secreted after administration", "setting": "[1]; 250 mg/kg, 1-2 hr", "value": 170, "unit": "%"}, {"measurement": "Bile volume secreted after administration", "setting": "[1]; 250 mg/kg, 2-3 hr", "value": 122, "unit": "%"}, {"measurement": "Bile volume secreted after administration", "setting": "[1]; 250 mg/kg, 3-4 hr", "value": 99, "unit": "%"}, {"measurement": "Bile volume secreted after administration", "setting": "[1]; 250 mg/kg, 4-5 hr", "value": 89, "unit": "%"}, {"measurement": "Bile volume secreted after administration", "setting": "[1]; 750 mg/kg, 0-1 hr", "value": 218, "unit": "%"}, {"measurement": "Bile volume secreted after administration", "setting": "[1]; 750 mg/kg, 1-2 hr", "value": 199, "unit": "%"}, {"measurement": "Bile volume secreted after administration", "setting": "[1]; 750 mg/kg, 2-3 hr", "value": 175, "unit": "%"}, {"measurement": "Bile volume secreted after administration", "setting": "[1]; 750 mg/kg, 3-4 hr", "value": 153, "unit": "%"}, {"measurement": "Bile volume secreted after administration", "setting": "[1]; 750 mg/kg, 4-5 hr", "value": 139, "unit": "%"}, {"measurement": "Volume of bile secreted relative to one hour before administration", "setting": "[1]; 250 mg/kg, first hour", "value": 2.1, "unit": "times"}, {"measurement": "Volume of bile secreted relative to one hour before administration", "setting": "[1]; 250 mg/kg, second hour", "value": 1.7, "unit": "times"}, {"measurement": "Volume of bile secreted relative to one hour before administration", "setting": "[1]; 250 mg/kg, third hour", "value": 1.2, "unit": "times"}, {"measurement": "Bile volume secreted after administration", "setting": "[2]; 250 mg/kg, 0-1 hr", "value": 176, "unit": "%"}, {"measurement": "Bile volume secreted after administration", "setting": "[2]; 250 mg/kg, 1-2 hr", "value": 168, "unit": "%"}, {"measurement": "Bile volume secreted after administration", "setting": "[2]; 250 mg/kg, 2-3 hr", "value": 122, "unit": "%"}, {"measurement": "Bile volume secreted after administration", "setting": "[2]; 250 mg/kg, 3-4 hr", "value": 65, "unit": "%"}, {"measurement": "Bile volume secreted after administration", "setting": "[2]; 250 mg/kg, 4-5 hr", "value": 41, "unit": "%"}, {"measurement": "Sleeping time", "setting": "[3]", "value": "17.8 ± 0.3", "unit": "min"}, {"measurement": "LD50 at 72 h", "setting": "[4]", "value": 1800, "unit": "mg/kg"}]}, {"compound": "CC(=O)OCC(C)(O)C1CC=C(C)CC1", "note": "(stereo not shown) [9-Acetoxy-p-menth-1-en-8-ol, 9-acetoxy-p-menth-1-en-8-ol]", "values": [{"measurement": "Bile volume secreted after administration", "setting": "[1]; 100 mg/kg, 0-1 hr", "value": 125, "unit": "%"}, {"measurement": "Bile volume secreted after administration", "setting": "[1]; 100 mg/kg, 1-2 hr", "value": 109, "unit": "%"}, {"measurement": "Bile volume secreted after administration", "setting": "[1]; 100 mg/kg, 2-3 hr", "value": 96, "unit": "%"}, {"measurement": "Bile volume secreted after administration", "setting": "[1]; 100 mg/kg, 3-4 hr", "value": 82, "unit": "%"}, {"measurement": "Bile volume secreted after administration", "setting": "[1]; 100 mg/kg, 4-5 hr", "value": 75, "unit": "%"}, {"measurement": "Bile volume secreted after administration", "setting": "[1]; 310 mg/kg, 0-1 hr", "value": 196, "unit": "%"}, {"measurement": "Bile volume secreted after administration", "setting": "[1]; 310 mg/kg, 1-2 hr", "value": 172, "unit": "%"}, {"measurement": "Bile volume secreted after administration", "setting": "[1]; 310 mg/kg, 2-3 hr", "value": 145, "unit": "%"}, {"measurement": "Bile volume secreted after administration", "setting": "[1]; 310 mg/kg, 3-4 hr", "value": 124, "unit": "%"}, {"measurement": "Bile volume secreted after administration", "setting": "[1]; 310 mg/kg, 4-5 hr", "value": 114, "unit": "%"}, {"measurement": "Bile volume secreted after administration", "setting": "[1]; 930 mg/kg, 0-1 hr", "value": 218, "unit": "%"}, {"measurement": "Bile volume secreted after administration", "setting": "[1]; 930 mg/kg, 1-2 hr", "value": 203, "unit": "%"}, {"measurement": "Bile volume secreted after administration", "setting": "[1]; 930 mg/kg, 2-3 hr", "value": 172, "unit": "%"}, {"measurement": "Bile volume secreted after administration", "setting": "[1]; 930 mg/kg, 3-4 hr", "value": 154, "unit": "%"}, {"measurement": "Bile volume secreted after administration", "setting": "[1]; 930 mg/kg, 4-5 hr", "value": 130, "unit": "%"}, {"measurement": "Volume of bile secreted relative to one hour before administration", "setting": "[1]; 250 mg/kg, first hour", "value": 1.9, "unit": "times"}, {"measurement": "Volume of bile secreted relative to one hour before administration", "setting": "[1]; 250 mg/kg, second hour", "value": 1.7, "unit": "times"}, {"measurement": "Volume of bile secreted relative to one hour before administration", "setting": "[1]; 250 mg/kg, third hour", "value": 1.4, "unit": "times"}, {"measurement": "Bile volume secreted after administration", "setting": "[2]; 310 mg/kg, 0-1 hr", "value": 395, "unit": "%"}, {"measurement": "Bile volume secreted after administration", "setting": "[2]; 310 mg/kg, 1-2 hr", "value": 457, "unit": "%"}, {"measurement": "Bile volume secreted after administration", "setting": "[2]; 310 mg/kg, 2-3 hr", "value": 534, "unit": "%"}, {"measurement": "Bile volume secreted after administration", "setting": "[2]; 310 mg/kg, 3-4 hr", "value": 464, "unit": "%"}, {"measurement": "Bile volume secreted after administration", "setting": "[2]; 310 mg/kg, 4-5 hr", "value": 277, "unit": "%"}, {"measurement": "Bile volume secreted after administration", "setting": "[2]; 310 mg/kg, 5-6 hr", "value": 157, "unit": "%"}, {"measurement": "Sleeping time", "setting": "[3]", "value": "18.1 ± 1.5", "unit": "min"}, {"measurement": "LD50 at 72 h", "setting": "[5]", "value": 8300, "unit": "mg/kg"}, {"measurement": "LD50 at 72 h", "setting": "[4]", "value": "1000 to 2000", "unit": "mg/kg"}]}]}
